Assay results: US5010064A, “Inclusion complexes of dipyridamole with cyclodextrins” (Edmond Pharma s.r.l., priority 1987, dated 1991)

Assays:
[1] = test system: platelet aggregation (ADP-induced) in platelet rich plasma of rabbits; assay: platelet aggregation inhibiting activity ex vivo; format: in vivo, New Zealand rabbit
Description: The platelet rich plasma (PRP) has been separated by centrifugation for 10 minutes and has been suitable diluted to have always 250,000-300,000 platelet/mm^3 with plasma free of platelets (obtained from blood samples by further centrifugation for 10 minutes at 3200 rpm.
The platelet aggregation has been measured by the turbidimetric method under continuous stirring at 37° C., after having added ADP (Adenosine diphosphate to PRP (1.5 μg/ml).

[2] = dog, oral, 75 mg active ingredient; 0 min
Description: (§1) Studies have been carried out on Beagle dogs (male and female; body weight 10-11 kg) following an experimental scheme in "cross over".
(§2) The blood has been collected in the presence of eparine (10 U.I./ml) and the plasma, separated by centrifugation, has been immediately frozen and stored at -20° C. until extraction. After about 10-20 days of storage, 0.2 ml of plasma has been drawn from each sample and mixed for 15 seconds with 0.5 ml of NaOH 1N. Thereafter, 4 ml of terbutylmethylether have been added and the whole has been stirred for 1 minute. In order to separate the aqueous phase from the organic phase the whole has been centrifuged for 5 minutes. The organic phase has been then removed and dried to dryness under nitrogen stream. […] An excitation wave length of 285 nm has been chosen in connection with an emission filter of 470 nm.

[3] = pH higher than 5.5-6; cited from earlier work
[4] = cited from earlier work
in vivo = settings: dog, plasma, po, 75 mg
Description: as §1, §2

SMILES: OCCN(CCO)c1nc(N2CCCCC2)c2nc(N(CCO)CCO)nc(N3CCCCC3)c2n1 [dipyridamole, 2,2',2",2"'-(4,8-dipiperidinopyrimido/5,4,d/-pyrimidine-2,6-diyldinitrilo)tetraethanol]
- % platelet aggregation ([1]; 10 mg/kg os, 0 hr): 83 ± 3.0%
- % platelet aggregation ([1]; 10 mg/kg os, 0.5 hr): 63 ± 3.7%
- % platelet aggregation ([1]; 10 mg/kg os, 1 hr): 44 ± 3.2%
- % platelet aggregation ([1]; 10 mg/kg os, 2 hr): 40 ± 2.9%
- % platelet aggregation ([1]; 10 mg/kg os, 4 hr): 49 ± 2.7%
- % platelet aggregation ([1]; 20 mg/kg os, 0 hr): 87 ± 3.2%
- % platelet aggregation ([1]; 20 mg/kg os, 0.5 hr): 58 ± 5.9%
- % platelet aggregation ([1]; 20 mg/kg os, 1 hr): 29 ± 4.1%
- % platelet aggregation ([1]; 20 mg/kg os, 2 hr): 27 ± 3.8%
- % platelet aggregation ([1]; 20 mg/kg os, 4 hr): 38 ± 3.9%
- average plasma concentration of dipyridamole [2]: 0
- solubility in water [3]: poor soluble in water
- blood level at which not pharmacologically active ([4]; in vivo): 0.5-1 γ/ml
- blood level with undesired side effects (cephalea and nausea) ([4]; in vivo): 2000 to 2500 ng/mL
- adsorption ([4]; in words): not well adsorbed
- variability of blood levels between and within subjects ([4]; in words): blood levels different from one to another subject and for repeated administrations in the same subject
- blood level needed to be active as platelet aggregation inhibiting agent ([4]; man): higher than 1 mcg/ml
- upper blood level (might show side effects such as cephalea and nausea) ([4]; man): 2.0 to 2.5 µg/mL
- concentration at 10 min (in vivo): 8 ng/mL
- concentration at 20 min (in vivo): 24 ng/mL
- concentration at 0.5 h (in vivo): 784 ng/mL
- concentration at 0.75 h (in vivo): 1620 ng/mL
- concentration at 1 h (in vivo): 2840 ng/mL
- concentration at 1.5 h (in vivo): 3960 ng/mL
- concentration at 2 h (in vivo): 4710 ng/mL
- concentration at 2.5 h (in vivo): 4730 ng/mL
- concentration at 3 h (in vivo): 2930 ng/mL
- concentration at 4 h (in vivo): 1970 ng/mL
- concentration at 5 h (in vivo): 1290 ng/mL
- concentration at 6 h (in vivo): 628 ng/mL
- concentration at 7 h (in vivo): 360 ng/mL
